# Molecular target: T1, Human NK1 Receptor (Homo sapiens, UniProt P25103)
# T1 construct: endogenous in cells; host or cells: Human lymphoma IM9 cells (whole cells)
# Assay: In Vitro Human NK1 Receptor Binding Assay ([125I]Bolton-Hunter substance P displacement, IM9 cells)
# Settings: Human lymphoma IM9 cells, [125I]Bolton-Hunter substance P (0.05-0.1 nM), 50 min at 21° C.; Table 1; read-out: NK1 binding IC50
# Outline: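 Radioligand displacement on whole IM9 human lymphoma cells (2.5×10^6 cells/mL) using [125I]Bolton-Hunter substance P (0.05-0.1 nM), 50 min at 21° C in Tris pH 7.4/MnCl2 buffer with protease inhibitors. Non-specific binding defined by […] [Sar9, Met(O2)11] substance P. Filtration, gamma counting, iterative curve fitting.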
# T1 sequence (P25103 whole entry): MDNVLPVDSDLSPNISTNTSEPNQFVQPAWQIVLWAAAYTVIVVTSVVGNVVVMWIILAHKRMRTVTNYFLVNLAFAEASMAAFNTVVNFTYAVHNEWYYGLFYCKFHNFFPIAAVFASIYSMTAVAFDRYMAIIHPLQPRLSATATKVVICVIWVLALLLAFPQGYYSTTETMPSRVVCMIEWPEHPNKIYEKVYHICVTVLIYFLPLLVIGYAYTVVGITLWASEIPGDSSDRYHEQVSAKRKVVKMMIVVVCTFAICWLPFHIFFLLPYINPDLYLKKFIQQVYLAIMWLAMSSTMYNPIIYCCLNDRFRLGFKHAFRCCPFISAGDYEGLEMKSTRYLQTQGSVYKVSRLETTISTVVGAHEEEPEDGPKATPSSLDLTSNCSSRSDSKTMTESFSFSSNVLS
row,Molecule,IC50
1,"C[C@H](NC(=O)[C@@H](Cc1c[nH]c2ccccc12)NCc1cc2ccccc2o1)c1ccccc1 (relative stereo) [Example 6, 2-[(Benzofuran-2-ylmethyl)-amino]-3-(1H-indol-3-yl)-N-(1-phenyl-ethyl)-propionamide, [R-(R*,S*)]]",0.7 nM

# Same assay, conditions: Human lymphoma IM9 cells, [125I]Bolton-Hunter substance P; Table 3, array-synthesis products; read-out: IC50 (nM) hNK1
row,Molecule,IC50
1,"O=C(NCc1ccc(Cl)cc1)C(Cc1c[nH]c2ccccc12)NCc1cc2ccccc2o1 (centres unmarked) [Example 258, 2-[(Benzofuran-2-ylmethyl)-amino]-N-(4-chloro-benzyl)-3-(1H-indol-3-yl)-propionamide]",46 nM
2,"CC(NC(=O)C(Cc1c[nH]c2ccccc12)NCc1cc2ccccc2o1)c1ccc(N(C)C)cc1 (centres unmarked) [Example 217, 2-[(Benzofuran-2-ylmethyl)-amino]-N-[1-(4-dimethylamino-phenyl)-ethyl]-3-(1H-indol-3-yl)-propionamide]",819 nM
3,"O=C(NC1CCc2ccccc21)C(Cc1c[nH]c2ccccc12)NCc1cc2ccccc2o1 (centres unmarked) [Example 195, 2-[(Benzofuran-2-ylmethyl)-amino]-N-indan-1-yl-3-(1H-indol-3-yl)-propionamide]",1750 nM
4,"CC(NC(=O)C(Cc1c[nH]c2ccccc12)NCc1cc2ccccc2o1)c1cccc2ccccc12 (centres unmarked) [Example 207, 2-[(Benzofuran-2-ylmethyl)-amino]-3-(1H-indol-3-yl)-N-(1-naphthalen-1-yl-ethyl)-propionamide]",591 nM
5,"O=C(NCCc1cccc(F)c1)C(Cc1c[nH]c2ccccc12)NCc1cc2ccccc2o1 (centres unmarked) [Example 293, 2-[(Benzofuran-2-ylmethyl)-amino]-N-[2-(3-fluoro-phenyl)-ethyl]-3-(1H-indol-3-yl)-propionamide]",55 nM
6,"CC(Cc1c[nH]c2ccccc12)NC(=O)C(Cc1c[nH]c2ccccc12)NCc1cc2ccccc2o1 (centres unmarked) [Example 297, 2-[(Benzofuran-2-ylmethyl)-amino]-3-(1H-indol-3-yl)-N-[2-(1H-indol-3-yl)-1-methyl-ethyl]-propionamide]",3610 nM
7,"O=C(NC1CCCCC1)C(Cc1c[nH]c2ccccc12)NCc1cc2ccccc2o1 (centres unmarked) [Example 276, 2-[(Benzofuran-2-ylmethyl)-amino]-N-cyclohexyl-3-(1H-indol-3-yl)-propionamide]",655 nM
8,"O=C(NC1CCC(O)CC1)C(Cc1c[nH]c2ccccc12)NCc1cc2ccccc2o1 (centres unmarked) [Example 273, 2-[(Benzofuran-2-ylmethyl)-amino]-N-(4-hydroxy-cyclohexyl)-3-(1H-indol-3-yl)-propionamide]",> 10000 nM

# Same assay, conditions: Table 4; [125I]Bolton-Hunter substance P displacement, human IM9 cells; read-out: IC50 (nM) hNK1
row,Molecule,IC50
1,"CC(NC(=O)C(C)(Cc1c[nH]c2ccccc12)NCCNC(=O)CN1C(=O)c2ccccc2C1=O)c1ccccc1 (centres unmarked) [compound 321, 2-{2-[2-(1,3-Dioxo-1,3-dihydro-isoindol-2-yl)-acetylamino]-ethylamino}-3-(1H-indol-3-yl)-2-methyl-N-(1-phenyl-ethyl)-propionamide]",3040 nM
2,3-(1H-Indol-3-yl)-2-methyl-N-(1-phenyl-ethyl)-2-[4-(2-pyrrolidin-1-yl-ethoxy)-benzylamino]-propionamide [compound 335],> 10000 nM

# Same assay, conditions: Table 5; [125I]Bolton-Hunter substance P displacement, human IM9 cells; read-out: IC50 (nM) hNK1
row,Molecule,IC50
1,CC(NC(=O)C(Cc1c[nH]c2ccccc12)NCc1cc(F)cc(F)c1)c1ccccc1 (centres unmarked) [compound 399],140 nM
2,CNS(=O)(=O)c1cc(Cl)ccc1CNC(Cc1c[nH]c2ccccc12)C(=O)NC(C)c1ccccc1 (centres unmarked) [compound 369],450 nM
3,CC(NC(=O)C(Cc1c[nH]c2ccccc12)NCc1ccc(-c2ccc([N+](=O)[O-])cc2)o1)c1ccccc1 (centres unmarked) [compound 390],50 nM
4,CC(NC(=O)C(Cc1c[nH]c2ccccc12)NCc1ccccn1)c1ccccc1 (centres unmarked) [compound 395],> 10000 nM
5,COC(=O)c1ccc(CNC(Cc2c[nH]c3ccccc23)C(=O)NC(C)c2ccccc2)cc1 (centres unmarked) [compound 374],1910 nM
6,CC(NC(=O)C(Cc1c[nH]c2ccccc12)NCc1ccc(Oc2ccccc2)cc1)c1ccccc1 (centres unmarked) [compound 384],2350 nM

# Same assay, conditions: human NK1 receptor, IM9 cells, [125I]Bolton-Hunter substance P; read-out: IC50 (nM) hNK1
row,Molecule,IC50
1,"CN(C)c1ccc(CNC(=O)C(C)(Cc2c[nH]c3ccccc23)NCc2cc3ccccc3o2)cc1 (centres unmarked) [compound 60, 2-[(Benzofuran-2-ylmethyl)-amino]-N-(4-dimethylamino-benzyl)-3-(1H-indol-3-yl)-2-methyl-propionamide]",964 nM
2,"CC(Cc1c[nH]c2ccccc12)(NCc1cc2ccccc2o1)C(=O)NC12CN3CN(CN(C3)C1)C2 (centres unmarked) [compound 78, 2-[(Benzofuran-2-ylmethyl)-amino]-3-(1H-indol-3-yl)-2-methyl-N-(1,3,5-triaza-tricyclo[3.3.1.1>3,7]-dec-7-yl)-propionamide]",> 10000 nM
3,"CC(Cc1c[nH]c2ccccc12)(NCc1cc2ccccc2o1)C(=O)NCc1ccco1 (centres unmarked) [compound 127, 2-[(Benzofuran-2-ylmethyl)-amino]-N-furan-2-ylmethyl-3-(1H-indol-3-yl)-2-methyl-propionamide]",191 nM
4,"CC(NC(=O)C(C)(Cc1c[nH]c2ccccc12)NCc1cc2ccccc2o1)c1cccnc1 (centres unmarked) [compound 44, 2-[(Benzofuran-2-ylmethyl)-amino]-3-(1H-indol-3-yl)-2-methyl-N-(1-pyridin-3-yl-ethyl)-propionamide]",151 nM
5,"CC(Cc1c[nH]c2ccccc12)(NCc1cc2ccccc2o1)C(=O)NCC1CCNCC1 (centres unmarked) [compound 156, 2-[(Benzofuran-2-ylmethyl)-amino]-3-(1H-indol-3-yl)-2-methyl-N-piperidin-4-ylmethyl-propionamide]",> 10000 nM
6,"CC(Cc1c[nH]c2ccccc12)(NCc1cc2ccccc2o1)C(=O)NCc1cc(Br)ccc1O (centres unmarked) [compound 170, 2-[(Benzofuran-2-ylmethyl)-amino]-N-(5-bromo-2-hydroxy-benzyl)-3-(1H-indol-3-yl)-2-methyl-propionamide]",2380 nM
7,"CC(Cc1c[nH]c2ccccc12)(NCc1cc2ccccc2o1)C(=O)NCc1ccc(N)c2ccccc12 (centres unmarked) [compound 141, N-(4-Amino-naphthalen-1-ylmethyl)-2-[(benzofuran-2-ylmethyl)-amino]-3-(1H-indol-3-yl)-2-methyl-propionamide]",2340 nM
8,"CC(NC(=O)C(C)(Cc1c[nH]c2ccccc12)NCc1cc2ccccc2o1)c1cccc(N)c1 (centres unmarked) [compound 37, N-[1-(3-Amino-phenyl)-ethyl]-2-[(benzofuran-2-ylmethyl)-amino]-3-(1H-indol-3-yl)-2-methyl-propionamide]",364 nM
9,"CC(Cc1c[nH]c2ccccc12)(NCc1cc2ccccc2o1)C(=O)NC1CCc2ccccc21 (centres unmarked) [compound 158, 2-[(Benzofuran-2-ylmethyl)-amino]-N-indan-1-yl-3-(1H-indol-3-yl)-2-methyl-propionamide]",2570 nM
10,"CC(Cc1c[nH]c2ccccc12)(NCc1cc2ccccc2o1)C(=O)NCc1ccc(C(=O)O)cc1 (centres unmarked) [compound 171, 4-{[2-[(Benzofuran-2-ylmethyl)-amino]-3-(1H-indol-3-yl)-2-methyl-propionylamino]-methyl}-benzoic acid]",> 10000 nM
11,"CC(Cc1c[nH]c2ccccc12)(NCc1cc2ccccc2o1)C(=O)NCCc1ccc(S(N)(=O)=O)cc1 (centres unmarked) [compound 47, 2-[(Benzofuran-2-ylmethyl)-amino]-3-(1H-indol-3-yl)-2-methyl-N-[2-(4-sulfamoyl-phenyl)-ethyl]-propionamide]",7620 nM
12,"CC(Cc1c[nH]c2ccccc12)(NCc1cc2ccccc2o1)C(=O)NCc1cccnc1 (centres unmarked) [compound 24, 2-[(Benzofuran-2-ylmethyl)-amino]-3-(1H-indol-3-yl)-2-methyl-N-pyridin-3-ylmethyl-propionamide]",547 nM

# Reference: patent US6472418B1, “Non-peptide NK1 receptors antagonists” (Warner-Lambert Company, priority 1998, dated 2002)
